From patent publication EP1859794A1, “Sustained release supplements” (priority 2006, dated 2007)

Columns and labels:
physchem = format: physicochemical; details: simulated gastric solution, pH 4
Method: TABLE 2 Change in creatine with time at pH 4
The determination was based upon formation of creatinine under buffered incubation conditions. A solution of 1% creatine in simulated gastric solution (0.5% betain/pepsin in 1M HEPES buffer pH controlled with 5M HC1 and 5N NaOH). Creatinine determination performed by PDA spectrophotometer in kinetic mode, scanning at 15 sec intervals with an integration time of 0.5 sec. Detection in 1 cm path length flow call at 37°C with test analyte flowing at 1 ml/min. Reagents obtained from Sigma-Aldrich.

[1] = Stamina and strength of athletes taking creatine (free weights and hammer strength machines); format: in vivo, human; details: two subjects
Method: Week 1-4: Two subjects were administered creatine monohydrate in powder form for four weeks. 2 grams were taken in the A.M. before breakfast.
No changes were made to diet and athletes were working out 4 times per week.
Stamina & Strength levels were monitored at the beginning of the study and every workout for 4 weeks.
A combination of free weights and hammer strength machines were used.
Week 5-8. Athletes discontinued creatine use. After 1 week the stomach bloat, bloating of the ankles and wrist, along with diarrhea and loose stools disappeared. About a 1% increase in strength was again noticed by the end of week 8, due to old fashioned hard work.
Week 9-12. Athletes were administered one 750 mg sustained released tablet in the a.m. and one 750 mg tablet in the afternoon. The breakdown of these tablets were 9 hours.

[2] = FTNIR / HPLC analysis of creatine and creatinine, as is or dry basis; format: physicochemical; details: before digestion simulation
Method: Tests on the coated Tablet prepared as described in Example 2 but with addition of 6% by tablet weight of PV/AP, creatine monohydrate powder and capsules of creatine monohydrate were carried out
These tests were done on an "AS IS or DRY BASIS.
Identification performed by FINIR, against in-house external library standards obtained from Sigma & produced by HPLC. / Quantification by FTNIR against external library standards obtained from Sigma & produced by HPLC
Bran & Luebbe InfraProver II FTNIR
Analysis performed by HPLC using Intersil ODS-2 5um (250x4.dmm) and 25 min. gradient elution with 0.1% phosphoric acid buffer in H2O and 0.1% phosphoric acid in acetonitrile. External reference standards obtained from Sigma-Aldrich.

[3] = Digestion simulation in stomacher at pH 3 for 60 minutes, total creatine and creatinine levels; format: physicochemical
Method: 1 capsule of creatine (500 mg) and 500 mg of powder was used along with 1 tablet of 500 mg of Sustained Released Creatine.
All 3 products were placed in a stomacher at pH 3 for 60 minutes to simulate digestion. Stomacher contained 1 liter of fluid with pH being adjusted with hydrochloric acid to simulate digestion.
After 60 minutes of digestion simulation in stomacher, all 3 products were tested for: • Total Creatine levels • Total Creatinine levels

[4] = 2 grams in the A.M. before breakfast, week 1-4

CN(CC(=O)O)C(=N)N [creatine]
remaining at 15 s (physchem): 94%
remaining at 0.5 min (physchem): 86%
remaining at 45 s (physchem): 75%
remaining at 1 min (physchem): 66%
remaining at 75 s (physchem): 57%
remaining at 0.025 h (physchem): 49%
remaining at 105 s (physchem): 38%
remaining at 2 min (physchem): 31%
remaining at 135 s (physchem): 21%
remaining at 2.5 min (physchem): 16%
remaining at 165 s (physchem): 6%
remaining at 0.05 h (physchem): 0.5%

CN(CC(=O)O)C(=N)N.O [Creatine Powder, creatine monohydrate]
side effects [1, 4]: Stomach bloating, bloating of the ankles and wrist, along with diarrhea and loose stools
stamina increase [1, 4]: did not notice any stamina increase
increase in strength ([1]; 2 grams in the A.M. before breakfast, week 1-4, not attributed to creatine): ~1%
over all sense of tiredness ([1]; 2 grams in the A.M., week two through week four): set in after week two and lasted through week four
Creatine [2]: Creatine 100.1%
Creatinine [2]: Creatinine <200ppm
pH of Stomacher after addition of product ([3]; 500 mg elemental creatine added to stomacher at pH 3, 1 liter of fluid): 3.5
creatine converted to creatinine after 60 minutes (in words) ([3]; 500 mg, stomacher at pH 3, 60 minutes): all creatine being converted to creatinine
degraded at 1 h ([3]; acidified fluid, 500 mg elemental creatine, stomacher at pH 3, 60 minutes, read-out: Total conversion to Creatinine after 60 minutes of digestion): 100%
